Structures can show the parent of a compound that is named as a salt. Where two headings read alike, the source gives them in different places.
Key:
LIMK1KD [1] = target: T1, LIMK1KD (Homo sapiens, UniProt P53667); test: Differential (dynamic) scanning fluorimetry (DSF) assay, LIMK1KD; format: binding; settings: 2 µM LIMK1KD, compound 10 µM, single shot; for ΔTm at 10 µM: read-out: TM Shift LIMK1 (K)
T1 construct: His6 (N, cleaved yes); made in house; host or cells: baculovirus; Sf9 for virus, TriEx insect cells for expression
T1 sequence (P53667 330-637): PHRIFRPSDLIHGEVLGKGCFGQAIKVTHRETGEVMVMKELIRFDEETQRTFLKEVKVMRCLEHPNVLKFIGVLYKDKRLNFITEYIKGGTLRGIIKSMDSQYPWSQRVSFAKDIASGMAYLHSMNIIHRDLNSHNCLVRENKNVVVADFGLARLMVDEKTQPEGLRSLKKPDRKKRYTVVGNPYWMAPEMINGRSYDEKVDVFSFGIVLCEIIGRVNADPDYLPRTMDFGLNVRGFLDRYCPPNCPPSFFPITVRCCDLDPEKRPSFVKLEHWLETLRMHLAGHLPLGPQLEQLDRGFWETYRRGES

LIMK2KD = target: T2, LIMK2KD (Homo sapiens, UniProt P53671); test: Differential (dynamic) scanning fluorimetry (DSF) assay, LIMK2KD; format: binding; settings: for ΔTm at 10 µM: read-out: TM Shift LIMK2 (K)
T2 construct: The cDNA coding for LIMK2 residues 330 to 632 was PCR amplified; His6 (N, cleaved yes); made in house; host or cells: baculovirus; Sf9 for virus, TriEx insect cells for expression
T2 sequence (P53671 330-632): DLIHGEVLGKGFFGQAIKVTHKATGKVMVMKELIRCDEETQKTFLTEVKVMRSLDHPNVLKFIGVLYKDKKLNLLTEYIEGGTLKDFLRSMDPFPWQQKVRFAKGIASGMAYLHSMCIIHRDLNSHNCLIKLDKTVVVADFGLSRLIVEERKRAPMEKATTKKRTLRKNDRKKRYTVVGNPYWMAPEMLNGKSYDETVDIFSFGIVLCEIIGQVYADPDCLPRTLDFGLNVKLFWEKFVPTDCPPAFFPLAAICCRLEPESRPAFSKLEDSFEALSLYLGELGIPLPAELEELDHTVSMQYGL

LIMK1KD [2] = target: T1, LIMK1KD; test: RapidFire mass spec kinase activity assay (CFL1 phosphorylation); format: biochemical; settings: 40 nM LIMK1KD, 2 µM CFL1, 800 µM ATP, 60 min; read-out: LIMK1 IC50
LIMK1 = settings: cited from earlier work
[3] = LIMK2KD, compound 10 µM, single shot, 10 µM
[4] = LIMK2KD, compound 10 µM, single shot

Compound	TM Shift LIMK1 (K) (LIMK1KD [1])	ΔTm at 10 µM (LIMK1KD [1])	ΔTm at 10 µM (LIMK2KD; [4])	TM Shift LIMK2 (K) (LIMK2KD; [4])	further results
CC(C)(C)c1nc(-c2cccc(NS(=O)(=O)c3c(F)cccc3F)c2F)c(-c2ccnc(N)n2)s1 [Dabrafenib (GSK2118436), Dabrafenib]	10 K	10.3 °C	11.1 °C		TM Shift LIMK2 (K) (LIMK2KD; [3]): 11 K; IC50 (LIMK1KD [2]): 0.014 µM
CNC(=O)c1cc(Oc2ccc(NC(=O)Nc3cc(C(C)(C)C)nn3-c3ccc4ncccc4c3)c(F)c2)ccn1 [DCC-2036 (Rebastinib), Rebastinib]		10 °C	4.8 °C		IC50 (LIMK1KD [2]): 0.075 µM
Cn1cc(-c2[nH]c3cc(NC(=O)[C@H](N)C4CCCCC4)cc4c3c2C=NNC4=O)cn1 [PF-477736]	11 K	11.1 °C	9 °C		IC50 (LIMK1KD [2]): 0.0044 µM
C[C@@H](Oc1cc(-n2cnc3ccc(CN4CCN(C)CC4)cc32)sc1C(N)=O)c1ccccc1C(F)(F)F [GSK461364]		1.1 °C	0.8 °C		
N#C/C(=C(/N)Sc1ccc(N)cc1)c1ccccc1C(F)(F)F [SL-327]	0.7 K			0.7 K	
Oc1ccc2ccccc2c1SSc1c(O)ccc2ccccc12 [IPA-3]	0.0 K			1.2 K	
Cc1cc([C@@H](C)Nc2ccccc2C(=O)O)c2nc(N3CCOCC3)cc(=O)n2c1 [AZD6482]		0.7 °C	1.8 °C		
Cc1ccc2nc(NCCN)c3ncc(C)n3c2c1 [BMS-345541]		0.4 °C	2.8 °C		
C=CC(=O)N1CCC[C@@H](n2nc(-c3ccc(Oc4ccccc4)cc3)c3c(N)ncnc32)C1 [Ibrutinib (PCI-32765), Ibrutinib]		2.4 °C	0.7 °C		
CCc1cncnc1N1CCN(Cc2nc3ccc(C(F)(F)F)cc3[nH]2)CC1 [PF-4708671]	0.4 K				TM Shift LIMK2 (K) (LIMK2KD; [3]): 3.5 K
Cc1cc(Nc2nc(N[C@@H](C)c3ccc(F)cc3)c(C#N)cc2F)[nH]n1 [AZ 960]		6 °C	0.1 °C		
CS(=O)(=O)c1cccc(CNc2nc(Nc3ccc4c(c3)CCC(=O)N4)ncc2C(F)(F)F)c1 [PF-573228]	1.0 K			0.7 K	
CC(=O)Nc1cccc(-n2c(=O)n(C3CC3)c(=O)c3c(Nc4ccc(I)cc4F)n(C)c(=O)c(C)c32)c1 [Trametinib (GSK1120212), Trametinib]		-0.2 °C	0 °C		
C#Cc1cccc(Nc2ncnc3cc(OCCOC)c(OCCOC)cc23)c1 [Erlotinib HCl (OSI-744), Erlotinib HCl]		0.1 °C	0.5 °C		
Cc1ccc(NC(=O)c2ccc(CN3CCN(C)CC3)cc2)cc1Nc1nccc(-c2cccnc2)n1 [Imatinib Mesylate (STI571), Imatinib Mesylate]	0.0 K				TM Shift LIMK2 (K) (LIMK2KD; [3]): 0.8 K
CCO.N#CC(=C(/N)Sc1ccccc1N)/C(C#N)=C(\N)Sc1ccccc1N [U0126-EtOH]	-1.1 K			2.4 K	
C=CC(=O)Nc1cccc(Nc2nc(Nc3ccc(OCCOC)cc3)ncc2F)c1 [AVL-292]		3.8 °C	3.1 °C		

Compound	TM Shift LIMK1 (K) (LIMK1KD [1])	ΔTm at 10 µM (LIMK1KD [1])	ΔTm at 10 µM (LIMK2KD; [4])	TM Shift LIMK2 (K) (LIMK2KD; [4])	further results
CN[C@@H]1C[C@H]2O[C@@](C)([C@@H]1OC)n1c3ccccc3c3c4c(c5c6ccccc6n2c5c31)C(=O)NC4 [Staurosporine]		5.1 °C			ΔTm at 10 µM (LIMK2KD): 3.3 °C
Cc1c[nH]c2ncnc(N3CCC(CN)(C(=O)Nc4cccc(OC(=O)N(C)C)c4)CC3)c12 [LX-7101]					IC50 (LIMK1; read-out: LIMK1 IC50): 0.032 µM
CCc1cncnc1N1CCN(Cc2nc3ccc(C(F)(F)F)cc3[nH]2)CC1 [PF-04708671]	1.6 K				TM Shift LIMK2 (K) (LIMK2KD; [3]): 1.7 K
COc1cc(N2CCC(N)CC2)ccc1Nc1ncc(Cl)c(-c2c[nH]c3ccccc23)n1 [AZD3463]	2.5 K			3.1 K	
COc1cc2nccc(Oc3ccc(NC(=O)Nc4ccc(F)cc4F)c(F)c3)c2cc1OC [Ki8751]	-0.1 K			1.5 K	
Fc1cc(-c2cccc3ncc(-c4cnn(C5CCNCC5)c4)nc23)cc(F)c1CN1CCOCC1 [NVP-BSK805 2HCl]	1.5 K			0.2 K	
CC(C)CC(=O)Nc1[nH]nc2c1CN(C(=O)C1CCN(C)CC1)C2(C)C [PHA-793887]		1 °C	4.1 °C		
Nc1cc(C(F)(F)F)c(-c2cc(N3CCOCC3)nc(N3CCOCC3)n2)cn1 [Buparlisib]	0.6 K				TM Shift LIMK1 (K) (LIMK1KD [1]; listed as BKM120 (NVP-BKM120, Buparlisib)): -1.9 K; TM Shift LIMK2 (K) (LIMK2KD; [3]): 0.0 K; TM Shift LIMK2 (K) (LIMK2KD; LIMK2KD, compound 10 µM, single shot, listed as BKM120 (NVP-BKM120, Buparlisib), 10 µM): 0.7 K
COc1cc(OC)c(/C=C/S(=O)(=O)Cc2ccc(OC)c(NCC(=O)O)c2)c(OC)c1 [Rigosertib (ON-01910), Rigosertib]		2.7 °C	1.6 °C		
Cl.Cl.O=S(=O)(NCCNC/C=C/c1ccc(Br)cc1)c1cccc2cnccc12 [H 89 2HCl]	1.8 K			3.9 K	
CC[C@@H]1C(=O)N(C)c2cnc(Nc3ccc(C(=O)N[C@H]4CC[C@H](N5CCN(CC6CC6)CC5)CC4)cc3OC)nc2N1C(C)C [Volasertib (BI 6727), Volasertib]		0.5 °C	0.3 °C		
O=C(Cc1ccc(-c2ccc(OCCN3CCOCC3)cc2)cn1)NCc1ccccc1 [KX2-391]	1.7 K			-0.3 K	
COc1cc(N2CCC(N3CCN(C)CC3)CC2)ccc1Nc1ncnc(Nc2ccccc2S(=O)(=O)C(C)C)n1 [ASP3026]		3.7 °C	1.4 °C		
COc1cc2ncnc(Nc3ccc(F)c(Cl)c3)c2cc1NC(=O)/C=C/CN1CCCCC1 [Dacomitinib (PF299804, PF299), Dacomitinib]		0.9 °C	0.2 °C		
CCS(=O)(=O)N1CC(CC#N)(n2cc(-c3ncnc4[nH]ccc34)cn2)C1 [Baricitinib]		1.6 °C	1 °C		
O=c1[nH]c2ccc(Cl)cc2c(N[C@@H]2CN3CCC2CC3)c1-c1nc2ccccc2[nH]1 [CHIR-124]	2.2 K			-1.7 K	
C=CC(=O)Nc1cccc(Nc2nc(Nc3ccc(N4CCN(C(C)=O)CC4)cc3OC)ncc2C(F)(F)F)c1 [CO-1686 (AVL-301)]		0.4 °C	-0.4 °C		
O=C1NC(=O)C(=Cc2ccc(-c3ccc(F)cc3)o2)S1 (stereo in doubt) [CAY10505]	0.7 K			2.3 K	
